# Earlier results, collected in patent publication US12667577B2, “Pharmaceutical composition, and aprepitant injection and freeze-dried powder injection” (WISDOM PHARMACEUTICAL CO., LTD, priority 2022, dated 2026).
# What was measured:
# [1] = molecular target: T1, 5-hydroxytryptamine receptor 3 (5-HT3) (Homo sapiens, UniProt P46098)
# T1 sequence (P46098 24-478): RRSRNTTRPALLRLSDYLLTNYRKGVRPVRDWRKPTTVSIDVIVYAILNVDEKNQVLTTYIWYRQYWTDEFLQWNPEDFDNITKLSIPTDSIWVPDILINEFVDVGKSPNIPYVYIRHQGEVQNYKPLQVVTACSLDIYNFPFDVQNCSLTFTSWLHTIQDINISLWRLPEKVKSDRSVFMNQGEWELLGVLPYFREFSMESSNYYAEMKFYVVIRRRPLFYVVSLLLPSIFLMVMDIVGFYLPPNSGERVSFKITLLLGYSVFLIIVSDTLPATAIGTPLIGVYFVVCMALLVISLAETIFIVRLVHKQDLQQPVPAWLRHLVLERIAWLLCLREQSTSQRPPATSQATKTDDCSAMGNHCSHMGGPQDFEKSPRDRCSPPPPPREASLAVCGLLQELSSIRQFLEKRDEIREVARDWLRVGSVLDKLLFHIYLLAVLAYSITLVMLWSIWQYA
# [2] = molecular target: human substance P neurokinin-1 (NK1) receptor (Homo sapiens, UniProt P25103)
# glucocorticoid receptor = molecular target: T2, glucocorticoid receptor (Homo sapiens, UniProt P04150)
# T2 sequence (P04150 1-777): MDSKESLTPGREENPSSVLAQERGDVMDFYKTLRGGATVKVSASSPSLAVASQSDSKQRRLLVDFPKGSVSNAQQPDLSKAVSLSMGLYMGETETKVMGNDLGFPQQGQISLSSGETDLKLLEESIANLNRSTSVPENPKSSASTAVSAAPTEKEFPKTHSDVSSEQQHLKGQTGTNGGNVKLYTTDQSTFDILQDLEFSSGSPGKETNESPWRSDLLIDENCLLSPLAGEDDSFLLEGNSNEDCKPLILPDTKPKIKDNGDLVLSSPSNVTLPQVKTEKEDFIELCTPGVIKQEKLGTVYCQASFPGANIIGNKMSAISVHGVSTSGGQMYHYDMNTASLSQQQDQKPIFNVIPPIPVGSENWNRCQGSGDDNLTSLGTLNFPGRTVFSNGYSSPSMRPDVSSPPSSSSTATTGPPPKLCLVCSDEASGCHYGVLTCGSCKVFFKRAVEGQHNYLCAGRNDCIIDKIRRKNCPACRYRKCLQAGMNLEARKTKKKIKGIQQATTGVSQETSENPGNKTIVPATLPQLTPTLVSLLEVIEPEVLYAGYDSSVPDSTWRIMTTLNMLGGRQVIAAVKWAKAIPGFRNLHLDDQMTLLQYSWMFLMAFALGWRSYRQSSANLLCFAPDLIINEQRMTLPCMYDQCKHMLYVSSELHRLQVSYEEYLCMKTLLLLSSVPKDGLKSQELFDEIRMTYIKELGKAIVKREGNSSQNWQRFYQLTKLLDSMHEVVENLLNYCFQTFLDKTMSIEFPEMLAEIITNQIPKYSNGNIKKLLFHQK
# [3] = clinical data
# human substance P neurokinin-1 (NK1) receptor, sequence (P25103 whole entry): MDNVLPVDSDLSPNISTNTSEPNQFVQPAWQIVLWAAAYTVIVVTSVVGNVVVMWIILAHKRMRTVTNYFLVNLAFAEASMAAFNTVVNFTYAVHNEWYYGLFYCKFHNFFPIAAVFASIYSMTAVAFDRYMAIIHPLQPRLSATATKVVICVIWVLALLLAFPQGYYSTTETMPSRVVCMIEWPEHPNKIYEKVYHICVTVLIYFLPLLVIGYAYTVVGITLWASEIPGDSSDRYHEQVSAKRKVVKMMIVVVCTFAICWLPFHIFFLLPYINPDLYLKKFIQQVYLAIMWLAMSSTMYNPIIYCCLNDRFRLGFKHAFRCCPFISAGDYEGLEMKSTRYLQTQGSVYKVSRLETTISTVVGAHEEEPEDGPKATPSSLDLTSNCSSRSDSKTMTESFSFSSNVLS
smiles,measurement,setting,value
"C[C@@H](O[C@H]1OCCN(Cc2n[nH]c(=O)[nH]2)[C@H]1c1ccc(F)cc1)c1cc(C(F)(F)F)cc(C(F)(F)F)c1 [aprepitant, Aprepitant]",classification in biopharmaceutics,low dissolution and low permeability,Class IV
same,"solubility in ethanol, isopropyl acetate, and acetonitrile",room temperature,slightly soluble
same,solubility in water,room temperature,0.55 µg/mL
same,affinity to 5-HT3,[1],low or no affinity
same,affinity to NK1 receptor,[2],high-affinity
same,affinity to glucocorticoid receptor,glucocorticoid receptor,low or no affinity
same,affinity to dopamine receptor,dopamine receptor,low or no affinity
same,adverse effect rate at injection sites,[3],0.5%
